Twelve molecules from patent US9309242B2, “Substituted pyrido[2,3-b]pyrazines as FGFR kinase inhibitors” (priority 2011, dated 2016) can be followed below.

For series [1], the target named is FGFR3 (h) (Homo sapiens, UniProt P22607). The series can be described thus: FGFR3 (enzymatic assay), TR-FRET. Format: biochemical. As to conditions: average values if tested multiple times, read-out: FGFR 3 pIC50 (converted). From the text:
Time-Resolved Fluorescence Resonance Energy Transfer (TR-FRET) signal (ex340 nm.
(Time-resolved FRET reads energy transfer from a long-lived donor to a nearby acceptor.)

The target of series [2] is FGFR4 (h) (Homo sapiens, UniProt P22455). In words: FGFR4 (enzymatic assay), TR-FRET. Format: biochemical. As to conditions: FGFR 4 pIC50, enzymatic assay; average values if tested multiple times.
FGFR4 (h), sequence (P22455 22-802): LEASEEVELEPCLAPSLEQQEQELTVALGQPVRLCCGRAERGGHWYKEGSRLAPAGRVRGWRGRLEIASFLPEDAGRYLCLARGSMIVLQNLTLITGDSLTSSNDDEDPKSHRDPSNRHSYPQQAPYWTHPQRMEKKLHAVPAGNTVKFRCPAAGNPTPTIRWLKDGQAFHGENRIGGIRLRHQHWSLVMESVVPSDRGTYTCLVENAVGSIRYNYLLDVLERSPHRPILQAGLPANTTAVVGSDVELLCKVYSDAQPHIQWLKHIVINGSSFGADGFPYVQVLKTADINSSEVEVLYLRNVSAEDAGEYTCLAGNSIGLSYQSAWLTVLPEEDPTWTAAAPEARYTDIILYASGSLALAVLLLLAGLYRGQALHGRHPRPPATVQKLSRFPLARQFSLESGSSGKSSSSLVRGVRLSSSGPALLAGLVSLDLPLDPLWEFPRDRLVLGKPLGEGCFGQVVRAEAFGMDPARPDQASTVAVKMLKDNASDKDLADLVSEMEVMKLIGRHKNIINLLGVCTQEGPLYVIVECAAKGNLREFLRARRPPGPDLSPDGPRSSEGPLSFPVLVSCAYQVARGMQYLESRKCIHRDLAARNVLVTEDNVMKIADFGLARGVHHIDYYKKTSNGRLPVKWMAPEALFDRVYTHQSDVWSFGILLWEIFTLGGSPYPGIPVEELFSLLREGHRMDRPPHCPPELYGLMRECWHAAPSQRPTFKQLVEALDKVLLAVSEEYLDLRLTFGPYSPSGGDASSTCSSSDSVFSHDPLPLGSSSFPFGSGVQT
Series [3] relates to Ba/F3-FGFR1-transfected cells. The series can be described thus: Ba/F3-FGFR1 (plus IL3) cellular proliferation assay, counterscreen with 10 ng/ml murine IL3. Format: cell-based. To be noted: read-out: BAF3-FGFR1 (PLUS IL3) pIC50 (converted). An outline of the steps: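 Ba/F3-FGFR1 cells (20000/well) in RPMI-1640 with 10% FBS exposed to compound for 24 h at 37° C., 5% CO2, then Alamar Blue (resazurin) added for 4 h; fluorescence read at ex 540/em 590 nm. Counterscreen run identically with 10 ng/ml murine IL3.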
In general terms: A counterscreen serves to expose hits that act by an unwanted route or on another target.

For series [4], the target named is T1, Ba/F3-FGFR3-transfected cells (Homo sapiens, UniProt P22607).
T1 construct: BAF3-FGFR3 (MIN IL3) pIC50; other: minus IL3
T1 sequence (P22607 whole entry, change not shown): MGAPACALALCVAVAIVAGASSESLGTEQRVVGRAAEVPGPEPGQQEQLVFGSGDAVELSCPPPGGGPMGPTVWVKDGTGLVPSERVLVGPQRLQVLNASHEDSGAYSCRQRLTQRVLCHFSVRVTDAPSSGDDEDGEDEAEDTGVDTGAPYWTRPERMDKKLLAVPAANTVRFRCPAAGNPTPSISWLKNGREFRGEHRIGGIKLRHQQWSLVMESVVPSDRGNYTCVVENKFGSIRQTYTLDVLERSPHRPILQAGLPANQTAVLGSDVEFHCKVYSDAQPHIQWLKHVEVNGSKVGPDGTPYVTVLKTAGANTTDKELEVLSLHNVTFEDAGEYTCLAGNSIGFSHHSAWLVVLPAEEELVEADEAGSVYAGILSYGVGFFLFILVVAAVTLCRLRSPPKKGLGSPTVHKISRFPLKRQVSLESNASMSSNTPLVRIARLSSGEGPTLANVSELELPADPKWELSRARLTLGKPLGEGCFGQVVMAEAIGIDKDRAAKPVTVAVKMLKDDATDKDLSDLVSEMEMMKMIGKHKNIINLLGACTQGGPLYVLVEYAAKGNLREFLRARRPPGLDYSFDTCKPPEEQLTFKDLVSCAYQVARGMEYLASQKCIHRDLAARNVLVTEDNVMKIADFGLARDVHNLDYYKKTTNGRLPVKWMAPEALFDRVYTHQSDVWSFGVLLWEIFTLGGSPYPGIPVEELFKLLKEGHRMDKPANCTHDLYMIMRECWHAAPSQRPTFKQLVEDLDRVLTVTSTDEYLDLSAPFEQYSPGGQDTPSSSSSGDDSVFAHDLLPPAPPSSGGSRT
The series can be described thus: Ba/F3-FGFR3 (minus IL3) cellular proliferation assay, Alamar Blue. The class given is cell-based. The essentials: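 With or without 10 ng/ml murine IL3, FGFR3-dependent Ba/F3 cells were treated 24 h with compound, then viability was gauged by Alamar Blue fluorescence after 4 h (ex 540/em 590 nm).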
On the technique in general: The colour change of resazurin is a common sign of viable cells or microbes.

For series [5], the target named is T2, Ba/F3-KDR-transfected cells (Homo sapiens, UniProt P35968).
T2 construct: BAF3-KDR (MIN IL3) pIC50; other: minus IL3
T2 sequence (P35968 whole entry, change not shown): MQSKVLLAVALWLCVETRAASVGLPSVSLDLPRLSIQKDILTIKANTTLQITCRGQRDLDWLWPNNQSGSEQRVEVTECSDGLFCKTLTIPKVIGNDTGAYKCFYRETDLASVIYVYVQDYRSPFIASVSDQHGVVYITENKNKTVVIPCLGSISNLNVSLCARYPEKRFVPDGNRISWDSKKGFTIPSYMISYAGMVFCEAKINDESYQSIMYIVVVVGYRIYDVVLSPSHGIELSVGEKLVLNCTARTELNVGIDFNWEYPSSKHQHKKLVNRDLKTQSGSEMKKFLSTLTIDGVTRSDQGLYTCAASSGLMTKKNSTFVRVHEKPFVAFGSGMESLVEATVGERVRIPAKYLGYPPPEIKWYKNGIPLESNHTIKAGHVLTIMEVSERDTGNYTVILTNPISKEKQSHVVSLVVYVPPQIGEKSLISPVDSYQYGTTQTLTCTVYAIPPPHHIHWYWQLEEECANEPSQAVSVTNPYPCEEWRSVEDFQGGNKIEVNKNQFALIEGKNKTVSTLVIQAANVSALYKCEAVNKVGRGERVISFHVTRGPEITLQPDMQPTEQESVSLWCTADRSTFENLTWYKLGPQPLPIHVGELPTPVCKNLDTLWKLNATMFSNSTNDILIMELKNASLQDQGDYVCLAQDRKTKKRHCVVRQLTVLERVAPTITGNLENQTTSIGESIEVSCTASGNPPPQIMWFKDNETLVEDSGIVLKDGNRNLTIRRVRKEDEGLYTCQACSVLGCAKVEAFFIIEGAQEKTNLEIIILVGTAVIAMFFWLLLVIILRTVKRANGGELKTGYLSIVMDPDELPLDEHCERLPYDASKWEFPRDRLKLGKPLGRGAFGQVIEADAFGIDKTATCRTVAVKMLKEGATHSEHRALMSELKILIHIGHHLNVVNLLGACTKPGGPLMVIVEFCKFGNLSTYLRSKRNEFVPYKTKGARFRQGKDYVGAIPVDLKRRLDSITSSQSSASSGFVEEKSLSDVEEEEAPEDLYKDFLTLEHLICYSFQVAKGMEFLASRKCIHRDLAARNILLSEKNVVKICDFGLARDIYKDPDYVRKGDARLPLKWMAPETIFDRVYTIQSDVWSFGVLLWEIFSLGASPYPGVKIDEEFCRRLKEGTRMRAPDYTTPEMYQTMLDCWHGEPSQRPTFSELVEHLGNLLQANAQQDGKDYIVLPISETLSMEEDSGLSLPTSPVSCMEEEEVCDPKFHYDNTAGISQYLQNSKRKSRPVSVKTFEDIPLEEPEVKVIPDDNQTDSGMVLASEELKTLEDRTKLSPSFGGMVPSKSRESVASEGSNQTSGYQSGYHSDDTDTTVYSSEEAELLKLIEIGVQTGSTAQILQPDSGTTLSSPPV
In words: Ba/F3-KDR (minus IL3) cellular proliferation assay, Alamar Blue. Format: cell-based. An outline of the steps: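 Ba/F3-KDR cells (20000 per well) in phenol red-free RPMI-1640 with 10% FBS were exposed to compound for 24 hours at 37° C, 5% CO2. Alamar Blue (resazurin) was then added for 4 hours, and fluorescence was read at ex. 540 nm/em. 590 nm.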

The test system of series [6] is Ba/F3-Flt3-transfected cells. In words: Ba/F3-Flt3 (plus IL3) cellular proliferation assay, counterscreen with 10 ng/ml murine IL3. The class given is cell-based. As to conditions: read-out: BAF3_FLT3 (PLUS IL3) pIC50 (converted). The protocol: Ba/F3-Flt3 (Minus IL3 or Plus IL3) (Cellular Proliferation Assay)
In a 384 well plate, 100 nl of compound dilution in DMSO was sprayed before adding 50 μl cell culture medium (phenol red free RPMI-1640, 10% FBS, 2 mM L-Glutamine and 50 μg/ml Gentamycin) containing 20000 cells per well of Ba/F3-Flt3-transfected cells. Cells were put in an incubator at 37° C. and 5% CO2. After 24 hours, 10 μl of Alamar Blue solution (0.5 mM K3Fe(CN)6, 0.5 mM K4Fe(CN)6, 0.15 mM Resazurin and 100 mM Phosphate Buffer) was added to the wells, incubated for 4 hours at 37° C. and 5% CO2 before RFU's (Relative Fluorescence Units) (ex. 540 nm., em. 590 nm.) were measured in a fluororescence plate reader.
As a counterscreen the same experiment was performed in the presence of 10 ng/ml murine IL3.

The mark [7] stands for this setting: plus IL3 (10 ng/ml murine IL3, counterscreen).

Where two headings read alike, the source gives them in different places.

FGFR3 (h), sequence (P22607 23-806): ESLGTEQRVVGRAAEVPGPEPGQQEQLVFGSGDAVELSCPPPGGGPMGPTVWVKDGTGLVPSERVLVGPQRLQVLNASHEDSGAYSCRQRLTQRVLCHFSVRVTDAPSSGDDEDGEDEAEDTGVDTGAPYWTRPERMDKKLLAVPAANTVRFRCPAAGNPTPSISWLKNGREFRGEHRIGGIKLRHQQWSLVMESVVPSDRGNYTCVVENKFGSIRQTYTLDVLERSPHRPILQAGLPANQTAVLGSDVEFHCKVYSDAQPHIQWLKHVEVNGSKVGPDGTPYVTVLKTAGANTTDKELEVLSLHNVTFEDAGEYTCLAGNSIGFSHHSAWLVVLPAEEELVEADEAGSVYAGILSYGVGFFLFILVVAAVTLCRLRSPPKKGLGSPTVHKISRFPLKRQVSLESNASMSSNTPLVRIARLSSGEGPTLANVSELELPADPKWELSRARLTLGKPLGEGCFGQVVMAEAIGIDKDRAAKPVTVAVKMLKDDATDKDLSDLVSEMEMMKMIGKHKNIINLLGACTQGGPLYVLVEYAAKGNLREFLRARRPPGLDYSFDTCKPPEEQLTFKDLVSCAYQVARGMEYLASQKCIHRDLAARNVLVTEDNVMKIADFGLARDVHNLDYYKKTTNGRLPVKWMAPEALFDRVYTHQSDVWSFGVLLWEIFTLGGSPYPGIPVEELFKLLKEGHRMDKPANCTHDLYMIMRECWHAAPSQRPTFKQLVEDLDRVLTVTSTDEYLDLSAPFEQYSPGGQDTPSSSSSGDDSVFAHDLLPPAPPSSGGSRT

Molecule `COc1cc(OC)c(F)c(N(CCCO)c2ccc3ncc(-c4cnn(C)c4)nc3n2)c1F` (single isomer, unassigned) [Compound 16] returned a melting point of 208 °C. Moreover, in series [1], the IC50 was 25.1 nM. In addition, in series [2], the IC50 was 25.1 nM. The IC50 in series [3] (setting [7]) is greater than 10000 nM. Further, the “BAF3-FGFR3 (MIN IL3) pIC50” value in series [4] is 7.8. In series [5], the “BAF3-KDR (MIN IL3) pIC50” value came out at 6.2. The IC50 in series [6] (setting [7]) was greater than 10000 nM.

The molecule `COc1cc(OC)c(F)c(N(CCNC(C)C)c2ccc3ncc(-c4cnn(C)c4)nc3n2)c1F` [Compound 5] returned a melting point of 183 °C. Further, the IC50 in series [1] is 1.58 nM. The same molecule gave an IC50 in series [2] of 6.31 nM. Also, the IC50 in series [3] (setting [7]) is 6310 nM. Also, the “BAF3-FGFR3 (MIN IL3) pIC50” value in series [4] was found to be 8.3. Moreover, the “BAF3-KDR (MIN IL3) pIC50” value in series [5] worked out at 6.35. The IC50 in series [6] (setting [7]) is greater than 10000 nM.

Take `COCC(O)CN(c1cc(OC)cc(OC)c1)c1ccc2ncc(-c3cnn(C)c3)nc2n1` (centres unmarked) [Compound 7]: the melting point was 65 °C. In addition, in series [1], the IC50 was 1.58 nM. The IC50 in series [2] is 6.31 nM. In addition, in series [3] (setting [7]), the IC50 is greater than 10000 nM. For the same molecule, the “BAF3-FGFR3 (MIN IL3) pIC50” value in series [4] stood at 7.1. The “BAF3-KDR (MIN IL3) pIC50” value in series [5] turned out to be 5.1. Moreover, in series [6] (setting [7]), the IC50 was greater than 10000 nM.

Turning to `COc1cc(OC)c(F)c(N(Cc2ncccn2)c2ccc3ncc(-c4cnn(C)c4)nc3n2)c1` [Compound 9], the melting point was 227 °C. The IC50 in series [1] was 15.8 nM. Further, the IC50 in series [2] is 25.1 nM. For the same molecule, the IC50 in series [3] was greater than 10000 nM. Also, the “BAF3-FGFR3 (MIN IL3) pIC50” value in series [4] is roughly 7.2. Further, in series [5], the “BAF3-KDR (MIN IL3) pIC50” value was found to be 5.95. The IC50 in series [6] is greater than 10000 nM.

With `COc1cc(OC)c(F)c(N(Cc2cnccn2)c2ccc3ncc(-c4cnn(C)c4)nc3n2)c1F` [Compound 10], the IC50 in series [1] was 63.1 nM; in series [2], 100 nM; in series [3] (setting [7]), greater than 10000 nM; in series [6] (setting [7]), greater than 10000 nM. In addition, the “BAF3-FGFR3 (MIN IL3) pIC50” value in series [4] was 7.85. In addition, in series [5], the “BAF3-KDR (MIN IL3) pIC50” value is 6.2.

For `COc1cc(OC)c(F)c(N(CCO)c2ccc3ncc(-c4cnn(C)c4)nc3n2)c1F` [Compound 20], the IC50 was 1.58 nM in series [1], 3.98 nM in series [2], greater than 10000 nM in series [3] (setting [7]) and greater than 10000 nM in series [6] (setting [7]). Besides, in series [4], the “BAF3-FGFR3 (MIN IL3) pIC50” value turned out to be 8.15. Further, the “BAF3-KDR (MIN IL3) pIC50” value in series [5] is 6.53.

`COc1cc(OC)cc(N(CC#Cc2ncccc2OC)c2ccc3ncc(-c4cnn(C)c4)nc3n2)c1` [Compound 26] returned a melting point of 190 °C. Also, the IC50 in series [1] is 39.8 nM. Besides, the IC50 in series [2] is 63.1 nM. For the same molecule, the IC50 in series [3] (setting [7]) was greater than 10000 nM. The “BAF3-FGFR3 (MIN IL3) pIC50” value in series [4] was roughly 5.55. Also, the “BAF3-KDR (MIN IL3) pIC50” value in series [5] is recorded as less than 5. The IC50 in series [6] (setting [7]) was greater than 10000 nM.

`Cn1cc(-c2cnc3ccc(N(Cc4ncc[nH]4)c4cc(F)cc(F)c4)nc3n2)cn1` [Compound 27]: the IC50 was 3.89 nM in series [1], 11.2 nM in series [2], greater than 10000 nM in series [3] (setting [7]) and greater than 10000 nM in series [6] (setting [7]). Besides, the “BAF3-FGFR3 (MIN IL3) pIC50” value in series [4] is listed as roughly 6.54. The “BAF3-KDR (MIN IL3) pIC50” value in series [5] is reported as less than 5.

In the case of `COc1cc(OC)c(F)c(N(Cc2cn(S(=O)(=O)N(C)C)cn2)c2ccc3ncc(-c4cnn(C)c4)nc3n2)c1` [Compound 36], the IC50 in series [1] is 1.7 nM; in series [2], 1.48 nM; in series [3] (setting [7]) it was greater than 10000 nM; in series [6] (setting [7]) it was greater than 10000 nM. The “BAF3-FGFR3 (MIN IL3) pIC50” value in series [4] is listed as roughly 7.57. For the same molecule, in series [5], the “BAF3-KDR (MIN IL3) pIC50” value amounted to 5.67.

Take `COc1cc(/N=c2\ccc3ncc(-c4cnn(C)c4)nc3n2CCNC(C)C)c(F)c(OC)c1` [Compound 37]: the IC50 in series [1] is 8.71 nM; in series [2] it was 15.5 nM; in series [3] (setting [7]), greater than 10000 nM; in series [6] (setting [7]), greater than 10000 nM. In addition, the “BAF3-FGFR3 (MIN IL3) pIC50” value in series [4] is given as roughly 7.65. Moreover, in series [5], the “BAF3-KDR (MIN IL3) pIC50” value was 6.11.

As to `CNCCn1/c(=N/c2cc(OC)cc(OC)c2F)ccc2ncc(-c3cnn(C)c3)nc21` [Compound 38], the IC50 was 4.9 nM in series [1], 17.8 nM in series [2], greater than 10000 nM in series [3] (setting [7]) and greater than 10000 nM in series [6] (setting [7]). Also, the “BAF3-FGFR3 (MIN IL3) pIC50” value in series [4] amounted to 6.27. Besides, in series [5], the “BAF3-KDR (MIN IL3) pIC50” value is given as 5.13.

Consider `CNCCN(c1ccc2ncc(-c3cnn(C)c3)nc2n1)c1cc(OC)cc(OC)c1F` [Compound 39], for which the IC50 was 3.98 nM in series [1], 11 nM in series [2], greater than 10000 nM in series [3] and greater than 10000 nM in series [6]. The “BAF3-FGFR3 (MIN IL3) pIC50” value in series [4] was roughly 7.61. The “BAF3-KDR (MIN IL3) pIC50” value in series [5] is on record as roughly 6.19.

Broadly, the melting point is the temperature of the solid-liquid transition.
